Assays:
memapsin 2 = memapsin 2 (Homo sapiens, UniProt P56817); experiment: Inhibition of memapsin 2 beta-secretase activity (fluorogenic substrate FS-2); type: biochemical; settings: memapsin 2, pH 4, 37° C., 20 minutes pre-incubation; read-out: M2Ki
How it was run: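 Memapsin 2 pre-incubated 20 min with compound at pH 4, 37° C, then FS-2 substrate (MCA-SEVNLDAEFK-DNP, APP Swedish cleavage site) added. Rate of fluorescence increase compared with uninhibited controls, fitted to a tight-binding inhibition model.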

[1] = test system: Aβ production in Chinese hamster ovary cells that over-express human APP695 with the London and Swedish mutations; experiment: Cellular Aβ IC50 determination (Aβ40 sandwich ELISA); type: cell-based; settings: Cricetulus griseus; cellular Aβ production; read-out: IC50
How it was run: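 CHO cells overexpressing human APP695 with London and Swedish mutations, seeded at 10% confluency, treated with compounds up to about 4 μM final (0.4% DMSO). Secreted Aβ40 measured by sandwich ELISA relative to control and fitted to a 4-parameter IC50 model.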

memapsin 2, sequence (P56817 46-501): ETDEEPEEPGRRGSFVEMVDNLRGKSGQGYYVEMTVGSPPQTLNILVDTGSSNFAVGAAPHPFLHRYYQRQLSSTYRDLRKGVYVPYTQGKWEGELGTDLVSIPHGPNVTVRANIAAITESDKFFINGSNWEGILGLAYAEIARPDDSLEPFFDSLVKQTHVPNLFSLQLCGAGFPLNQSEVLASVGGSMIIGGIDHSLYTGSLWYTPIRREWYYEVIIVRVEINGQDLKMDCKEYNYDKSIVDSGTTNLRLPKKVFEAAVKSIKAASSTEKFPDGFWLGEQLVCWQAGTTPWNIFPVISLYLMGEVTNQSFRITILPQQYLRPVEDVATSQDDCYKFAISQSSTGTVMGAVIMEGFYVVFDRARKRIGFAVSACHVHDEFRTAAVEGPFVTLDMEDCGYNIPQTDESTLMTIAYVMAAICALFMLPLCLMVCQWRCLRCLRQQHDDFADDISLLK

## CNc1cccc(CNC[C@@H](O)[C@H](Cc2ccccc2)NC(=O)c2cccc(C(=O)N(C)Cc3nc(C)cs3)c2)c1 [Compound 167, N1-((2S,3R)-3-hydroxy-4-(3-(methylamino)benzylamino)-1-phenylbutan-2-yl)-N3-methyl-N3-((4-methylthiazol-2-yl)methyl)isophthalamide]
Memapsin 2
  Ki: < 300 nM
[1]
  IC50: < 1000 nM

## C=C(C)c1cccc(CNC[C@@H](O)[C@H](Cc2ccccc2)NC(=O)c2cccc(C(=O)N(C)Cc3nc(C)cs3)c2)c1 [Compound 168, N1-((2S,3R)-3-hydroxy-1-phenyl-4-(3-(prop-1-en-2-yl)benzylamino)butan-2-yl)-N3-methyl-N3-((4-methylthiazol-2-yl)methyl)isophthalamide]
Memapsin 2
  Ki: < 300 nM
[1]
  IC50: < 1000 nM

## CCN(CC)c1cc(C(=O)N[C@@H](Cc2ccccc2)[C@H](O)CNCc2cccc(OC)c2)cc(C(=O)N(C)Cc2nc(C)cs2)c1 [Compound 169, 5-(diethylamino)-N1-((2S,3R)-3-hydroxy-4-(3-methoxybenzylamino)-1-phenylbutan-2-yl)-N3-methyl-N3-((4-methylthiazol-2-yl)methyl)isophthalamide]
Memapsin 2
  Ki: < 300 nM
[1]
  IC50: < 1000 nM

## Cc1csc(CN(C)C(=O)c2cccc(C(=O)N[C@@H](Cc3ccccc3)[C@H](O)CNCc3cncc(C#N)c3)c2)n1 [Compound 171, N1-((2S,3R)-4-((5-cyanopyridin-3-yl)methylamino)-3-hydroxy-1-phenylbutan-2-yl)-N3-methyl-N3-((4-methylthiazol-2-yl)methyl)isophthalamide]
Memapsin 2
  Ki: 301 to 500 nM
[1]
  IC50: 1000 to 5000 nM

## CCN(CC)c1cc(C(=O)N[C@@H](Cc2ccccc2)[C@H](O)CNCc2cncc(C(C)C)c2)cc(C(=O)N(C)Cc2nc(C)cs2)c1 [Compound 172, 5-(diethylamino)-N1-((2S,3R)-3-hydroxy-4-((5-isopropylpyridin-3-yl)methylamino)-1-phenylbutan-2-yl)-N3-methyl-N3-((4-methylthiazol-2-yl)methyl)isophthalamide]
Memapsin 2
  Ki: < 300 nM
[1]
  IC50: < 1000 nM

## Cc1csc(CN(C)C(=O)c2cccc(C(=O)N[C@@H](Cc3ccccc3)[C@H](O)CNCc3cccc(C(C)Cl)c3)c2)n1 (stereo partly drawn) [Compound 173, N1-((2S,3R)-4-(3-(1-chloroethyl)benzylamino)-3-hydroxy-1-phenylbutan-2-yl)-N3-methyl-N3-((4-methylthiazol-2-yl)methyl)isophthalamide]
Memapsin 2
  Ki: < 300 nM
[1]
  IC50: < 1000 nM

## COc1cccc(CNC[C@@H](O)[C@H](Cc2ccccc2)NC(=O)c2cc(C(=O)N(C)Cc3nc(C)cs3)cc(-c3ccccn3)c2)c1 [Compound 174, N1-((2S,3R)-3-hydroxy-4-(3-methoxybenzylamino)-1-phenylbutan-2-yl)-N3-methyl-N3-((4-methylthiazol-2-yl)methyl)-5-(pyridin-2-yl)isophthalamide]
Memapsin 2
  Ki: < 300 nM
[1]
  IC50: < 1000 nM

## Cc1csc(CN(C)C(=O)c2cccc(C(=O)N[C@@H](Cc3ccccc3)[C@H](O)CNCc3cc(CNS(C)(=O)=O)cc(C(C)C)c3)c2)n1 [Compound 175, N1-((2S,3R)-3-hydroxy-4-(3-isopropyl-5-(methylsulfonamidomethyl)benzylamino)-1-phenylbutan-2-yl)-N3-methyl-N3-((4-methylthiazol-2-yl)methyl)isophthalamide]
Memapsin 2
  Ki: > 501 nM
[1]
  IC50: > 5000 nM

## Cc1csc(CN(C)C(=O)c2cc(CF)cc(C(=O)N[C@@H](Cc3ccccc3)[C@H](O)CNCc3cncc(C(C)C)c3)c2)n1 [Compound 176, 5-(fluoromethyl)-N1-((2S,3R)-3-hydroxy-4-((5-isopropylpyridin-3-yl)methylamino)-1-phenylbutan-2-yl)-N3-methyl-N3-((4-methylthiazol-2-yl)methyl)isophthalamide]
Memapsin 2
  Ki: < 300 nM
[1]
  IC50: < 1000 nM

## Cc1csc(CN(C)C(=O)c2cc(C(=O)N[C@@H](Cc3ccccc3)[C@H](O)CNCc3cc(C(C)C)nc(N)n3)cc(-c3ncco3)c2)n1 [Compound 177, N1-((2S,3R)-4-((2-amino-6-isopropylpyrimidin-4-yl)methylamino)-3-hydroxy-1-phenylbutan-2-yl)-N3-methyl-N3-((4-methylthiazol-2-yl)methyl)-5-(oxazol-2-yl)isophthalamide]
Memapsin 2
  Ki: < 300 nM
[1]
  IC50: < 1000 nM

## Cc1csc(CN(C)C(=O)c2cc(C(=O)N[C@@H](Cc3ccccc3)[C@H](O)CNCc3cc(OS(C)(=O)=O)cc(C(C)C)c3)cc(N(C)C)c2)n1 [Compound 178, 3-(((2R,3S)-3-(3-(dimethylamino)-5-(methyl((4-methylthiazol-2-yl)methyl)carbamoyl)benzamido)-2-hydroxy-4-phenylbutylamino)methyl)-5-isopropylphenyl methanesulfonate]
Memapsin 2
  Ki: < 300 nM
[1]
  IC50: < 1000 nM

## COc1cccc(CNC[C@@H](O)[C@H](Cc2ccccc2)NC(=O)c2cc(C(=O)N(C)Cc3nc(C)cs3)cc(N3CCCC3)c2)c1 [Compound 179, N1-((2S,3R)-3-hydroxy-4-(3-methoxybenzylamino)-1-phenylbutan-2-yl)-N3-methyl-N3-((4-methylthiazol-2-yl)methyl)-5-(pyrrolidin-1-yl)isophthalamide]
Memapsin 2
  Ki: < 300 nM
[1]
  IC50: < 1000 nM

## Cc1csc(CN(C)C(=O)c2cc(C(=O)N[C@@H](Cc3ccccc3)[C@H](O)CNCc3cncc(C(C)C)c3)cc(N3CCCC3)c2)n1 [Compound 180, N1-((2S,3R)-3-hydroxy-4-((5-isopropylpyridin-3-yl)methylamino)-1-phenylbutan-2-yl)-N3-methyl-N3-((4-methylthiazol-2-yl)methyl)-5-(pyrrolidin-1-yl)isophthalamide]
Memapsin 2
  Ki: < 300 nM
[1]
  IC50: < 1000 nM

## Cc1csc(CN(C)C(=O)c2cc(C(=O)N[C@@H](Cc3ccccc3)[C@H](O)CNCc3cncc(C(C)C)c3)cc(-c3ccccn3)c2)n1 [Compound 181, N1-((2S,3R)-3-hydroxy-4-((5-isopropylpyridin-3-yl)methylamino)-1-phenylbutan-2-yl)-N3-methyl-N3-((4-methylthiazol-2-yl)methyl)-5-(pyridin-2-yl)isophthalamide]
Memapsin 2
  Ki: < 300 nM
[1]
  IC50: < 1000 nM

## Cc1csc(CN(C)C(=O)c2cccc(C(=O)N[C@@H](Cc3ccccc3)[C@H](O)CN[C@@H](C)c3cncc(C(C)C)c3)c2)n1 [Compound 182, N1-((2S,3R)-3-hydroxy-4-((S)-1-(5-isopropylpyridin-3-yl)ethylamino)-1-phenylbutan-2-yl)-N3-methyl-N3-((4-methylthiazol-2-yl)methyl)isophthalamide]
Memapsin 2
  Ki: < 300 nM
[1]
  IC50: < 1000 nM

## Cc1csc(CN(C)C(=O)c2cccc(C(=O)N[C@@H](Cc3cscn3)[C@H](O)CNCc3cncc(C(C)C)c3)c2)n1 [Compound 183, N1-((2S,3R)-3-hydroxy-4-((5-isopropylpyridin-3-yl)methylamino)-1-(thiazol-4-yl)butan-2-yl)-N3-methyl-N3-((4-methylthiazol-2-yl)methyl)isophthalamide]
Memapsin 2
  Ki: 301 to 500 nM
[1]
  IC50: 1000 to 5000 nM

## Cc1csc(CN(C)C(=O)c2cccc(C(=O)N[C@@H](Cc3ccccc3)[C@H](O)CNCc3cccc(C(C)(C)O)c3)c2)n1 [Compound 184, N1-((2S,3R)-3-hydroxy-4-(3-(2-hydroxypropan-2-yl)benzylamino)-1-phenylbutan-2-yl)-N3-methyl-N3-((4-methylthiazol-2-yl)methyl)isophthalamide]
Memapsin 2
  Ki: < 300 nM
[1]
  IC50: < 1000 nM

## Cc1csc(CN(C)C(=O)c2cccc(C(=O)N[C@@H](Cc3ccccc3)[C@H](O)CNCc3cc(N(C)C)cc(N(C)C)c3)c2)n1 [Compound 185, N1-((2S,3R)-4-(3,5-bis(dimethylamino)benzylamino)-3-hydroxy-1-phenylbutan-2-yl)-N3-methyl-N3-((4-methylthiazol-2-yl)methyl)isophthalamide]
Memapsin 2
  Ki: < 300 nM
[1]
  IC50: < 1000 nM

## Cc1csc(CN(C(=O)c2cc(C(=O)N[C@@H](Cc3ccccc3)[C@H](O)CNCc3cncc(C(C)C)c3)cc(-c3ncco3)c2)C2CC2)n1 [Compound 186, N1-cyclopropyl-N3-((2S,3R)-3-hydroxy-4-((5-isopropylpyridin-3-yl)methylamino)-1-phenylbutan-2-yl)-N1-((4-methylthiazol-2-yl)methyl)-5-(oxazol-2-yl)isophthalamide]
Memapsin 2
  Ki: < 300 nM
[1]
  IC50: < 1000 nM

## COc1cccc(CNC[C@@H](O)[C@H](Cc2ccccc2)NC(=O)c2cc(C(=O)NCc3nc(C)cs3)cc(N3CCCC3)c2)c1 [Compound 187, N1-((2S,3R)-3-hydroxy-4-(3-methoxybenzylamino)-1-phenylbutan-2-yl)-N3-((4-methylthiazol-2-yl)methyl)-5-(pyrrolidin-1-yl)isophthalamide]
Memapsin 2
  Ki: < 300 nM
[1]
  IC50: > 5000 nM

## CCS(=O)(=O)c1cc(CNC[C@@H](O)[C@H](Cc2ccccc2)NC(=O)c2cccc(C(=O)N(C)Cc3nc(C)cs3)c2)cc(C(C)C)c1 [Compound 188, N1-((2S,3R)-4-(3-(ethylsulfonyl)-5-isopropylbenzylamino)-3-hydroxy-1-phenylbutan-2-yl)-N3-methyl-N3-((4-methylthiazol-2-yl)methyl)isophthalamide]
Memapsin 2
  Ki: < 300 nM
[1]
  IC50: < 1000 nM

## COc1cccc(CNC[C@@H](O)[C@H](Cc2ccccc2)NC(=O)c2cc(C(=O)N(C)Cc3nc(C)cs3)cc(-c3cccnc3)c2)c1 [Compound 189, N1-((2S,3R)-3-hydroxy-4-(3-methoxybenzylamino)-1-phenylbutan-2-yl)-N3-methyl-N3-((4-methylthiazol-2-yl)methyl)-5-(pyridin-3-yl)isophthalamide]
Memapsin 2
  Ki: < 300 nM
[1]
  IC50: < 1000 nM

## Cc1csc(CN(C)C(=O)c2cccc(C(=O)N[C@@H](Cc3ccccc3)[C@H](O)CNCc3cncc(C(C)(C)C)c3)c2)n1 [Compound 190, N1-((2S,3R)-4-((5-tert-butylpyridin-3-yl)methylamino)-3-hydroxy-1-phenylbutan-2-yl)-N3-methyl-N3-((4-methylthiazol-2-yl)methyl)isophthalamide]
Memapsin 2
  Ki: < 300 nM
[1]
  IC50: < 1000 nM
